#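 Compound exposure: 48 hours, 5 concentrations, 96-well plates. GI50: concentration for 50% inhibition of growth.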 Activity calls are given as the source filed them. No stated cut-off is given here; in the data, active = GI50 up to about 1.1 µM and inactive = higher.
# What was measured:
# Experiment in all cases: NCI-60 cell line screen, 48 h
# 786-0 = system: 786-0
# A498 = system: A498
# A549 = system: A549
# ACHN = system: ACHN
# BT-549 = system: BT-549
# CAKI-1 = system: CAKI-1
# CCRF-CEM = system: CCRF-CEM
# COLO 205 = system: COLO 205
# DU-145 = system: DU-145
# EKVX = system: EKVX
# HCC 2998 = system: HCC 2998
# HCT-116 = system: HCT-116
# HCT-15 = system: HCT-15
# HL-60 = system: HL-60
# HOP-92 = system: HOP-92
# HT-29 = system: HT-29
# Hs-578T = system: Hs-578T
# IGROV-1 = system: IGROV-1
# K562 = system: K562
# KM12 = system: KM12
# LOX IMVI = system: LOX IMVI
# M14 = system: M14
# MCF7 = system: MCF7
# MDA-MB-231 = system: MDA-MB-231
# MDA-MB-435 = system: MDA-MB-435
# MDA-N = system: MDA-N
# MOLT-4 = system: MOLT-4
# Malme-3M = system: Malme-3M
# NCI-H226 = system: NCI-H226
# NCI-H23 = system: NCI-H23
# NCI-H460 = system: NCI-H460
# NCI-H522 = system: NCI-H522
# NCI/ADR-RES = system: NCI/ADR-RES
# OVCAR-3 = system: OVCAR-3
# OVCAR-4 = system: OVCAR-4
# OVCAR-5 = system: OVCAR-5
# OVCAR-8 = system: OVCAR-8
# PC-3 = system: PC-3
# RPMI-8226 = system: RPMI-8226
# RXF 393 = system: RXF 393
# SF-268 = system: SF-268
# SF-295 = system: SF-295
# SF-539 = system: SF-539
# SK-MEL-28 = system: SK-MEL-28
# SK-MEL-2 = system: SK-MEL-2
# SK-MEL-5 = system: SK-MEL-5
# SK-OV-3 = system: SK-OV-3
# SN12C = system: SN12C
# SNB-19 = system: SNB-19
# SNB-75 = system: SNB-75
# SR = system: SR
# SW-620 = system: SW-620
# T47D = system: T47D
# TK-10 = system: TK-10
# U-251 = system: U-251
# UACC-257 = system: UACC-257
# UACC-62 = system: UACC-62
# UO-31 = system: UO-31
# HOP-62 = system: HOP-62
smiles,measurement,setting,value
CCCCCCCCCCCC[C@@H](O)[C@H]1CCC([C@H](O)CCCCC(=O)CCCCCCCC2=C[C@H](C)OC2=O)O1 (some centres undefined),GI50,786-0,> 31.6 µM (inactive)
same,GI50,A498,26.2 µM (inactive)
same,GI50,A549,10.4 µM (inactive)
same,GI50,ACHN,> 33.6 µM (inactive)
same,GI50,BT-549,9.06 µM (inactive)
same,GI50,CAKI-1,> 36.4 µM (inactive)
same,GI50,CCRF-CEM,4.59 µM (inactive)
same,GI50,COLO 205,12.5 µM (inactive)
same,GI50,DU-145,> 50 µM (inactive)
same,GI50,EKVX,14.1 µM (inactive)
same,GI50,HCC 2998,> 50 µM (inactive)
same,GI50,HCT-116,3.01 µM (inactive)
same,GI50,HCT-15,17.9 µM
same,GI50,HL-60,0.991 µM (active)
same,GI50,HOP-92,> 27 µM (inactive)
same,GI50,HT-29,14.6 µM (inactive)
same,GI50,Hs-578T,11.3 µM (inactive)
same,GI50,IGROV-1,> 50 µM (inactive)
same,GI50,K562,2.98 µM (inactive)
same,GI50,KM12,13.1 µM (inactive)
same,GI50,LOX IMVI,2.34 µM (inactive)
same,GI50,M14,15 µM (inactive)
same,GI50,MCF7,2.45 µM (inactive)
same,GI50,MDA-MB-231,> 41.7 µM (inactive)
same,GI50,MDA-MB-435,> 21.3 µM (inactive)
same,GI50,MDA-N,> 35.2 µM (inactive)
same,GI50,MOLT-4,2.62 µM (inactive)
same,GI50,Malme-3M,> 50 µM (inactive)
same,GI50,NCI-H226,15.8 µM (inactive)
same,GI50,NCI-H23,0.0957 µM (active)
same,GI50,NCI-H460,2.26 µM (inactive)
same,GI50,NCI-H522,15.4 µM (inactive)
same,GI50,NCI/ADR-RES,12.6 µM (inactive)
same,GI50,OVCAR-3,> 50 µM (inactive)
same,GI50,OVCAR-4,> 24.9 µM (inactive)
same,GI50,OVCAR-5,> 50 µM (inactive)
same,GI50,OVCAR-8,28.5 µM (inactive)
same,GI50,PC-3,14.6 µM (inactive)
same,GI50,RPMI-8226,2.5 µM (inactive)
same,GI50,RXF 393,11.6 µM (inactive)
same,GI50,SF-268,18.1 µM (inactive)
same,GI50,SF-295,20.1 µM (inactive)
same,GI50,SF-539,> 50 µM (inactive)
same,GI50,SK-MEL-28,19.2 µM (inactive)
same,GI50,SK-MEL-2,> 26.1 µM (inactive)
same,GI50,SK-MEL-5,0.0315 µM (active)
same,GI50,SK-OV-3,> 50 µM (inactive)
same,GI50,SN12C,> 39 µM (inactive)
same,GI50,SNB-19,> 28.2 µM (inactive)
same,GI50,SNB-75,> 37.9 µM (inactive)
same,GI50,SR,0.0773 µM (active)
same,GI50,SW-620,> 29.1 µM (inactive)
same,GI50,T47D,15.7 µM (inactive)
same,GI50,TK-10,> 50 µM (inactive)
same,GI50,U-251,13.3 µM (inactive)
same,GI50,UACC-257,7.96 µM (inactive)
same,GI50,UACC-62,17.4 µM (inactive)
same,GI50,UO-31,7.16 µM (inactive)
CO[C@@H]1C[C@H]2[C@@H]3CC[C@H]([C@@H](C)COC(C)=O)[C@@]3(C)CC[C@@H]2[C@@]2(C)CC[C@H]3C[C@]312,GI50,786-0,16.5 µM (inactive)
same,GI50,A498,20 µM (inactive)
same,GI50,A549,15.9 µM (inactive)
same,GI50,ACHN,16.6 µM (inactive)
same,GI50,BT-549,14.2 µM (inactive)
same,GI50,CAKI-1,9.12 µM (inactive)
same,GI50,CCRF-CEM,14.9 µM (inactive)
same,GI50,COLO 205,0.879 µM (active)
same,GI50,DU-145,14 µM (inactive)
same,GI50,EKVX,14.5 µM (inactive)
same,GI50,HCC 2998,15.1 µM (inactive)
same,GI50,HCT-116,10.2 µM (inactive)
same,GI50,HCT-15,13.3 µM
same,GI50,HL-60,3.89 µM (inactive)
same,GI50,HOP-62,17.7 µM (inactive)
same,GI50,HOP-92,19.9 µM (inactive)
same,GI50,HT-29,6.92 µM (inactive)
same,GI50,Hs-578T,18.5 µM (inactive)
same,GI50,IGROV-1,15.5 µM (inactive)
same,GI50,K562,10.2 µM (inactive)
same,GI50,KM12,11.1 µM (inactive)
same,GI50,LOX IMVI,11.4 µM (inactive)
same,GI50,M14,16.9 µM (inactive)
same,GI50,MCF7,9.48 µM (inactive)
same,GI50,MDA-MB-231,11.9 µM (inactive)
same,GI50,MDA-MB-435,15.1 µM (inactive)
same,GI50,MDA-N,16.9 µM (inactive)
same,GI50,MOLT-4,15.3 µM (inactive)
same,GI50,Malme-3M,16 µM (inactive)
same,GI50,NCI-H226,17.9 µM (inactive)
same,GI50,NCI-H23,12.8 µM (inactive)
same,GI50,NCI-H460,10.1 µM (inactive)
same,GI50,NCI-H522,16.2 µM (inactive)
same,GI50,NCI/ADR-RES,14.1 µM (inactive)
same,GI50,OVCAR-3,14.6 µM (inactive)
same,GI50,OVCAR-4,22 µM (inactive)
same,GI50,OVCAR-5,11.5 µM (inactive)
same,GI50,OVCAR-8,12.2 µM (inactive)
same,GI50,PC-3,15.2 µM (inactive)
same,GI50,RPMI-8226,8.67 µM (inactive)
same,GI50,RXF 393,17.7 µM (inactive)
same,GI50,SF-268,17.9 µM (inactive)
same,GI50,SF-295,15.1 µM (inactive)
same,GI50,SF-539,17.5 µM (inactive)
same,GI50,SK-MEL-28,17.1 µM (inactive)
same,GI50,SK-MEL-5,3.61 µM (inactive)
same,GI50,SN12C,16.5 µM (inactive)
same,GI50,SNB-19,16.9 µM (inactive)
same,GI50,SNB-75,17.9 µM (inactive)
same,GI50,SR,10 µM (inactive)
same,GI50,SW-620,11.8 µM (inactive)
same,GI50,T47D,13.2 µM (inactive)
same,GI50,TK-10,> 10 µM (inactive)
same,GI50,U-251,13.1 µM (inactive)
same,GI50,UACC-257,11.6 µM (inactive)
same,GI50,UO-31,18.5 µM (inactive)
